Here are results for one molecule from patent US8383612B2, “Use of megestrol acetate for improving heart function and the treatment of heart insufficiency” (Par Pharmaceuticals, Inc., priority 2004, dated 2013).

Assay [1] in a line: Progression of weight, furosemide-study. The class given is in vivo, Wistar rat. How it is done:
During the progression of both studies, the animals were weight-determined twice a week, starting from the date of surgery (laboratory balance model CS2000. Ohaus Corporation, Pine Brook, N.J., USA). The results were calculated corresponding to the post-surgical day of the respective animal.
(§1) Groups A, B and C of the infarction animals received furosemide (Lasix® 250 mg ampoule, Aventis Pharma GmbH, Frankfurt am Main, Germany) starting from day 18 (±2 days) for the whole study in a concentration of 8.6 mg/100 ml in drinking water. This corresponds to an initial dosage of 10 mg/kg/d at a weight of 300 g and an amount of drinking water of 35 ml/d.
Animals from the infarction-placebo group (without furosemide) and all sham-animals received drinking water without supplementation.
(§2) The infarction-furosemide-group corresponds to the blinded infarction-placebo-group of the megestrol acetate-Study (here: infarction-furosemide-group). An additional infarction-surgery group received simple drinking water without furosemide and served as control group for the furosemide-study (here: infarction-placebo-group). In order to expose all animals to equal conditions, in this group the furosemide-study was gavaged unblinded with placebo. A further group is the sham-placebo-group, that corresponds to the blinded sham-placebo-group of the megestrol acetate-study (here: sham-placebo-group).
Like in the megestrol acetate-study, the weight values corresponding to the day post-surgery of the respective animal were compared, but this time the data was analysed as a change of weight starting from the beginning of therapy of the furosemide-study (18th day post-surgery=day 0 of the furosemide-study). This therefore results in a 26 days longer period of observation for the diuretic-study in comparison with the megestrol acetate-study. Furosemide was given until the end of the observation period and to removal of organs, respectively.

Assay [2] concerns infarction-surgery rats (ligation of the left coronary artery, heart insufficiency). As to the kind of experiment: Echocardiography, furosemide-study. The class given is in vivo, Wistar rat. As for the experimental part: as §1
Between week 28 and 30 post surgery (corresponds to week 22 to 24 in the megestrol acetate-Study or week 25 to 27 in the diuretic study), the heart function of all rats still alive was examined by echocardiography. For this, each rat was first pre-anaesthetised using isoflurane (Curamed Pharma GmbH Karlsruhe, Germany) in a chamber of the anaesthetic unit Univentor 400 Anaesthesia Unit (Agn Tho's, Lidingö, Sweden) pre-anaesthetised and subsequently maintained by using a mask. For the echocardiography examination the thorax region was shaved and the rat was fixed in a position lying on the back. The echocardiography was performed with an Acuson-Sequoia C256 (Siemens, Germany) which was equipped with a 15 MHz sonication head suitable for rat- and mouse echocardiography. The left ventricle (LV) was adjusted in the parastemal long and short axis. […] The diastolic function was evaluated based on the LV-influx profile via the mitral valve (E/A-ratio) by means of a PW-Doppler. The measurement volume of the PW-doppler was placed at the tip of the opened mitral valve flap. The measurements were performed by an independent blinded researcher. In FIG. 1 the progression of weight for all groups is depicted.
as §2

Setting [3] is: infarction-furosemide-group, furosemide via drinking water, placebo in the gavage.

Each structure is given as a SMILES string. “Also recorded” adds a separate entry of the source.

Turning to `NS(=O)(=O)c1cc(C(=O)O)c(NCc2ccco2)cc1Cl` [furosemide], in assay [1] (infarction-furosemide-group), the “increase of weight over the whole period of time” value is recorded as 1.4 g/day, the “weight at the end of the observation period” value turned out to be 583 ± 12 g and the “weight gained at the end of the observation period” value was determined as 81%. Moreover, in assay [1] (infarction-furosemide-group, day 18 following surgery), the “mean weight at the beginning of the diuretic-study” value is 322 ± 3 g. In addition, the “progress of weight in comparison with the placebo-group with infarction” value in assay [1] (starting from day 105 after beginning of therapy, significant) is recorded as “less pronounced progress”. For the same molecule, the “effect on the echocardiographically determined heart function” value in assay [2] (infarction groups with vs. without furosemide) was “no differences; also recorded: no direct effect”. For the same molecule, in assay [2] (setting [3]), the A was determined as 0.62 ± 0.05 m/s, the E is recorded as 0.84 ± 0.03 m/s, the “E:A” value amounted to 1.61 ± 0.21 and the FS is 15.1 ± 1.0 %. For the same molecule, in assay [2] (setting [3]), the IVS d turned out to be 0.13 ± 0.03 cm, the LVEDD was 1.06 ± 0.02 cm, the LVEF stood at 35.5 ± 2.0 % and the LVESD was determined as 0.90 ± 0.02 cm. Also, the LVHW d in assay [2] (setting [3]) is 0.17 ± 0.01 cm.
